Test results as given in patent US20090246276A1, “Pharmaceutical Compositions” (priority 2008, published 2009).
Structures can show the parent of a compound that is named as a salt.

Experiment: In-vitro dissolution, 900 ml medium (0.1N HCl, pH 4.5 acetate buffer, pH 6.8 or pH 7.5 phosphate buffer), USP Apparatus 1, 75 rpm, 37° C.
Assay type: physicochemical
Conditions: for % Released (Bi-layer Tablets): Example 16 coated bi-layer tablet; for % Released (Homogenous Tablets): Example 19 tablet
Description: The dissolution profile of the above pharmaceutical composition was determined under the dissolution conditions described below in Tables 1A, 1B, and 1C.

Q: Which “% Released” value (Example 2 tablet, 0.1N HCl, 1 hr) does the source give for `CN(C)CCC[C@@]1(c2ccc(F)cc2)OCc2cc(C#N)ccc21` [Escitalopram Ox, escitalopram oxalate] here?
A: 15%

Q: What about the “% Released” value (Example 2 tablet, 0.1N HCl, 2 hr) of the same molecule?
A: 35%

Q: What about the “% Released” value (Example 2 tablet, 0.1N HCl, 4 hr) of the same molecule?
A: 68%

Q: What about the “% Released” value (Example 2 tablet, 0.1N HCl, 8 hr) of the same molecule?
A: 99%

Q: And the “% Released” value (Example 2 tablet, 0.1N HCl, 12 hr)?
A: 102%

Q: What about the “% Released” value (Example 2 tablet, 0.1N HCl, 16 hr) of the same molecule?
A: 101%

Q: What about the “% Released” value (Example 2 tablet, pH 4.5 acetate buffer, 1 hr) of the same molecule?
A: 15%

Q: And the “% Released” value (Example 2 tablet, pH 4.5 acetate buffer, 2 hr)?
A: 35%

Q: And the “% Released” value (Example 2 tablet, pH 4.5 acetate buffer, 4 hr)?
A: 64%

Q: What about the “% Released” value (Example 2 tablet, pH 4.5 acetate buffer, 8 hr) of the same molecule?
A: 97%

Q: And the “% Released” value (Example 2 tablet, pH 4.5 acetate buffer, 12 hr)?
A: 101%

Q: What about the “% Released” value (Example 2 tablet, pH 4.5 acetate buffer, 16 hr) of the same molecule?
A: 100%

Q: What about the “% Released” value (Example 2 tablet, pH 6.8 phosphate buffer, 1 hr) of the same molecule?
A: 14%

Q: And the “% Released” value (Example 2 tablet, pH 6.8 phosphate buffer, 2 hr)?
A: 33%

Q: What about the “% Released” value (Example 2 tablet, pH 6.8 phosphate buffer, 4 hr) of the same molecule?
A: 61%

Q: What about the “% Released” value (Example 2 tablet, pH 6.8 phosphate buffer, 8 hr) of the same molecule?
A: 92%

Q: And the “% Released” value (Example 2 tablet, pH 6.8 phosphate buffer, 12 hr)?
A: 96%

Q: What about the “% Released” value (Example 2 tablet, pH 6.8 phosphate buffer, 16 hr) of the same molecule?
A: 96%

Q: And the “% Released” value (Example 3 tablet, 0.1N HCl, 1 hr)?
A: 14%

Q: What about the “% Released” value (Example 3 tablet, 0.1N HCl, 2 hr) of the same molecule?
A: 32%

Q: What about the “% Released” value (Example 3 tablet, 0.1N HCl, 4 hr) of the same molecule?
A: 63%

Q: What about the “% Released” value (Example 3 tablet, 0.1N HCl, 8 hr) of the same molecule?
A: 102%

Q: What about the “% Released” value (Example 3 tablet, 0.1N HCl, 12 hr) of the same molecule?
A: 106%

Q: What about the “% Released” value (Example 3 tablet, 0.1N HCl, 16 hr) of the same molecule?
A: 105%

Q: What about the “% Released” value (Example 3 tablet, pH 4.5 acetate buffer, 1 hr) of the same molecule?
A: 13%

Q: And the “% Released” value (Example 3 tablet, pH 4.5 acetate buffer, 2 hr)?
A: 29%

Q: What about the “% Released” value (Example 3 tablet, pH 4.5 acetate buffer, 4 hr) of the same molecule?
A: 57%

Q: And the “% Released” value (Example 3 tablet, pH 4.5 acetate buffer, 8 hr)?
A: 96%

Q: What about the “% Released” value (Example 3 tablet, pH 4.5 acetate buffer, 12 hr) of the same molecule?
A: 102%

Q: What about the “% Released” value (Example 3 tablet, pH 4.5 acetate buffer, 16 hr) of the same molecule?
A: 101%

Q: And the “% Released” value (Example 3 tablet, pH 6.8 phosphate buffer, 1 hr)?
A: 13%

Q: And the “% Released” value (Example 3 tablet, pH 6.8 phosphate buffer, 2 hr)?
A: 29%

Q: And the “% Released” value (Example 3 tablet, pH 6.8 phosphate buffer, 4 hr)?
A: 59%

Q: What about the “% Released” value (Example 3 tablet, pH 6.8 phosphate buffer, 8 hr) of the same molecule?
A: 99%

Q: What about the “% Released” value (Example 3 tablet, pH 6.8 phosphate buffer, 12 hr) of the same molecule?
A: 104%

Q: And the “% Released” value (Example 3 tablet, pH 6.8 phosphate buffer, 16 hr)?
A: 104%

Q: And the “% Released” value (Example 5 tablet, 0.1N HCl, 1 hr)?
A: 13%

Q: What about the “% Released” value (Example 5 tablet, 0.1N HCl, 2 hr) of the same molecule?
A: 26%

Q: And the “% Released” value (Example 5 tablet, 0.1N HCl, 4 hr)?
A: 49%

Q: What about the “% Released” value (Example 5 tablet, 0.1N HCl, 8 hr) of the same molecule?
A: 81%

Q: And the “% Released” value (Example 5 tablet, 0.1N HCl, 12 hr)?
A: 97%

Q: And the “% Released” value (Example 5 tablet, 0.1N HCl, 16 hr)?
A: 98%

Q: And the “% Released” value (Example 6 tablet, 0.1N HCl, 1 hr)?
A: 16%

Q: What about the “% Released” value (Example 6 tablet, 0.1N HCl, 2 hr) of the same molecule?
A: 34%

Q: And the “% Released” value (Example 6 tablet, 0.1N HCl, 4 hr)?
A: 63%

Q: What about the “% Released” value (Example 6 tablet, 0.1N HCl, 8 hr) of the same molecule?
A: 97%

Q: And the “% Released” value (Example 6 tablet, 0.1N HCl, 12 hr)?
A: 100%

Q: And the “% Released” value (Example 6 tablet, 0.1N HCl, 16 hr)?
A: 100%

Q: What about the “% Released” value (Example 7 tablet, 0.1N HCl, 1 hr) of the same molecule?
A: 2%

Q: And the “% Released” value (Example 7 tablet, 0.1N HCl, 2 hr)?
A: 7%

Q: And the “% Released” value (Example 7 tablet, 0.1N HCl, 4 hr)?
A: 19%

Q: What about the “% Released” value (Example 7 tablet, 0.1N HCl, 8 hr) of the same molecule?
A: 44%

Q: And the “% Released” value (Example 7 tablet, 0.1N HCl, 12 hr)?
A: 63%

Q: And the “% Released” value (Example 7 tablet, 0.1N HCl, 16 hr)?
A: 77%

Q: And the “% Released” value (Example 8 tablet, 0.1N HCl, 1 hr)?
A: 0%

Q: What about the “% Released” value (Example 8 tablet, 0.1N HCl, 2 hr) of the same molecule?
A: 1%

Q: And the “% Released” value (Example 8 tablet, 0.1N HCl, 4 hr)?
A: 6%

Q: What about the “% Released” value (Example 8 tablet, 0.1N HCl, 8 hr) of the same molecule?
A: 19%

Q: What about the “% Released” value (Example 8 tablet, 0.1N HCl, 12 hr) of the same molecule?
A: 31%

Q: And the “% Released” value (Example 8 tablet, 0.1N HCl, 16 hr)?
A: 40%

Q: And the “% Released” value (Example 9 tablet, 0.1N HCl, 1 hr)?
A: 17%

Q: And the “% Released” value (Example 9 tablet, 0.1N HCl, 2 hr)?
A: 48%

Q: What about the “% Released” value (Example 9 tablet, 0.1N HCl, 3 hr) of the same molecule?
A: 74%

Q: What about the “% Released” value (Example 9 tablet, 0.1N HCl, 4 hr) of the same molecule?
A: 93%

Q: And the “% Released” value (Example 9 tablet, 0.1N HCl, 6 hr)?
A: 104%

Q: What about the “% Released” value (Example 9 tablet, 0.1N HCl, 8 hr) of the same molecule?
A: 103%

Q: And the “% Released” value (Example 9 tablet, 0.1N HCl, 10 hr)?
A: 103%

Q: What about the “% Released” value (Example 10 tablet, 0.1N HCl, 1 hr) of the same molecule?
A: 14%

Q: And the “% Released” value (Example 10 tablet, 0.1N HCl, 2 hr)?
A: 32%

Q: And the “% Released” value (Example 10 tablet, 0.1N HCl, 4 hr)?
A: 59%

Q: And the “% Released” value (Example 10 tablet, 0.1N HCl, 8 hr)?
A: 94%

Q: And the “% Released” value (Example 10 tablet, 0.1N HCl, 12 hr)?
A: 99%

Q: And the “% Released” value (Example 10 tablet, 0.1N HCl, 16 hr)?
A: 99%

Q: What about the “% Released” value (Example 11 tablet, 0.1N HCl, 1 hr) of the same molecule?
A: 16%

Q: And the “% Released” value (Example 11 tablet, 0.1N HCl, 2 hr)?
A: 33%

Q: What about the “% Released” value (Example 11 tablet, 0.1N HCl, 4 hr) of the same molecule?
A: 56%

Q: And the “% Released” value (Example 11 tablet, 0.1N HCl, 8 hr)?
A: 88%

Q: What about the “% Released” value (Example 11 tablet, 0.1N HCl, 12 hr) of the same molecule?
A: 97%

Q: What about the “% Released” value (Example 11 tablet, 0.1N HCl, 16 hr) of the same molecule?
A: 97%

Q: What about the “% Released” value (Example 12 tablet, 0.1N HCl, 1 hr) of the same molecule?
A: 8%

Q: And the “% Released” value (Example 12 tablet, 0.1N HCl, 2 hr)?
A: 29%

Q: What about the “% Released” value (Example 12 tablet, 0.1N HCl, 3 hr) of the same molecule?
A: 47%

Q: And the “% Released” value (Example 12 tablet, 0.1N HCl, 4 hr)?
A: 63%

Q: And the “% Released” value (Example 12 tablet, 0.1N HCl, 5 hr)?
A: 77%

Q: And the “% Released” value (Example 12 tablet, 0.1N HCl, 6 hr)?
A: 92%

Q: And the “% Released” value (Example 12 tablet, 0.1N HCl, 7 hr)?
A: 98%

Q: And the “% Released” value (Example 12 tablet, 0.1N HCl, 8 hr)?
A: 102%

Q: What about the “% Released” value (Example 13 tablet, 0.1N HCl, 1 hr) of the same molecule?
A: 9%

Q: And the “% Released” value (Example 13 tablet, 0.1N HCl, 2 hr)?
A: 28%

Q: And the “% Released” value (Example 13 tablet, 0.1N HCl, 3 hr)?
A: 45%

Q: What about the “% Released” value (Example 13 tablet, 0.1N HCl, 4 hr) of the same molecule?
A: 60%

Q: And the “% Released” value (Example 13 tablet, 0.1N HCl, 6 hr)?
A: 83%

Q: And the “% Released” value (Example 13 tablet, 0.1N HCl, 8 hr)?
A: 96%

Q: What about the “% Released” value (Example 13 tablet, 0.1N HCl, 10 hr) of the same molecule?
A: 99%

Q: What about the “% Released” value (Example 13 tablet, 0.1N HCl, 12 hr) of the same molecule?
A: 100%

Q: And the “% Released” value (Example 13 tablet, 0.1N HCl, 16 hr)?
A: 100%

Q: What about the “% Released” value (Example 14 tablet, 0.1N HCl, 4 hr) of the same molecule?
A: 56%

Q: And the “% Released” value (Example 14 tablet, 0.1N HCl, 6 hr)?
A: 76%

Q: What about the “% Released” value (Example 14 tablet, 0.1N HCl, 8 hr) of the same molecule?
A: 92%

Q: And the “% Released” value (Example 14 tablet, 0.1N HCl, 10 hr)?
A: 99%

Q: What about the “% Released (Bi-layer Tablets)” value (0.1N HCl, 1 hr) of the same molecule?
A: 9.47%

Q: And the “% Released (Bi-layer Tablets)” value (0.1N HCl, 2 hr)?
A: 27.06%

Q: And the “% Released (Bi-layer Tablets)” value (0.1N HCl, 3 hr)?
A: 45.32%

Q: And the “% Released (Bi-layer Tablets)” value (0.1N HCl, 4 hr)?
A: 60.81%

Q: And the “% Released (Bi-layer Tablets)” value (0.1N HCl, 5 hr)?
A: 74.22%

Q: And the “% Released (Bi-layer Tablets)” value (0.1N HCl, 6 hr)?
A: 83.48%

Q: And the “% Released (Bi-layer Tablets)” value (0.1N HCl, 7 hr)?
A: 90.11%

Q: What about the “% Released (Bi-layer Tablets)” value (0.1N HCl, 8 hr) of the same molecule?
A: 93.47%

Q: What about the “% Released (Homogenous Tablets)” value (0.1N HCl, 1 hr) of the same molecule?
A: 16.65%

Q: What about the “% Released (Homogenous Tablets)” value (0.1N HCl, 2 hr) of the same molecule?
A: 40.32%

Q: What about the “% Released (Homogenous Tablets)” value (0.1N HCl, 3 hr) of the same molecule?
A: 59.61%

Q: And the “% Released (Homogenous Tablets)” value (0.1N HCl, 4 hr)?
A: 75.31%

Q: And the “% Released (Homogenous Tablets)” value (0.1N HCl, 5 hr)?
A: 86.68%

Q: And the “% Released (Homogenous Tablets)” value (0.1N HCl, 6 hr)?
A: 94.46%

Q: And the “% Released (Homogenous Tablets)” value (0.1N HCl, 7 hr)?
A: 99.30%

Q: What about the “% Released (Homogenous Tablets)” value (0.1N HCl, 8 hr) of the same molecule?
A: 101.01%
